Assay results published in patent EP2794556B1, “BIS-(ARYL/HETEROARYL)-METHYLENE COMPOUNDS, PHARMACEUTICAL COMPOSITIONS CONTAINING SAME AND THEIR USE FOR TREATING CANCER” (Gleason, James L., priority 2011, dated 2013).
Where two headings read alike, the source gives them in different places.

Key:
[1] = tested on: SCC4 cells; test: MTS cell proliferation assay; type: cell-based, human; details: vitamin D resistant SCC4 cells, Figures 7c, 8 and 9
Description: Dose-dependent effects of compounds on cell cycle progression was monitored using a CellTiter 96 Aqueous Non-Radioactive Cell Proliferation Assay Kit (Promega). The assay composed of solutions of a novel tetrazolium compound (MTS) and an electron coupling reagent (phenazine methosulfate; PMS). MTS is reduced by metabolically active cells into a soluble formazan product that absorbs at 490nm. The quantity of formazan product absorbing at 490nm is directly proportional to the number of living cells.

[2] = tested on: SCC4 cells; test: LDH cytotoxicity assay; type: cell-based, human; details: vitamin D resistant SCC4 cells, Figures 10 and 11
Method: The cytotoxic effects of compounds were screened using a Cytotoxicity Assay Kit (Cayman Chemical), which measures release of the soluble […] enzyme lactate dehydrogenase (LDH) from dying cells into the culture medium using a coupled two-step reaction. LDH in the media catalyzes the reduction of NAD+ to NADH and H+ by oxidation of lactate to pyruvate. LDH-catalyzed NADH production is then measured by following diaphorase catalyzed NADH-dependent reduction of a tetrazolium salt (INT) to highly-colored formazan which absorbs strongly at 490-520 nm.
The proliferation assays above indicated the cessation of growth.

[3] = biological target: T1, HDAC6 (Homo sapiens, UniProt Q9UBN7); test: Fluorogenic HDAC inhibition assay, purified enzyme
T1 sequence (Q9UBN7 1-1215): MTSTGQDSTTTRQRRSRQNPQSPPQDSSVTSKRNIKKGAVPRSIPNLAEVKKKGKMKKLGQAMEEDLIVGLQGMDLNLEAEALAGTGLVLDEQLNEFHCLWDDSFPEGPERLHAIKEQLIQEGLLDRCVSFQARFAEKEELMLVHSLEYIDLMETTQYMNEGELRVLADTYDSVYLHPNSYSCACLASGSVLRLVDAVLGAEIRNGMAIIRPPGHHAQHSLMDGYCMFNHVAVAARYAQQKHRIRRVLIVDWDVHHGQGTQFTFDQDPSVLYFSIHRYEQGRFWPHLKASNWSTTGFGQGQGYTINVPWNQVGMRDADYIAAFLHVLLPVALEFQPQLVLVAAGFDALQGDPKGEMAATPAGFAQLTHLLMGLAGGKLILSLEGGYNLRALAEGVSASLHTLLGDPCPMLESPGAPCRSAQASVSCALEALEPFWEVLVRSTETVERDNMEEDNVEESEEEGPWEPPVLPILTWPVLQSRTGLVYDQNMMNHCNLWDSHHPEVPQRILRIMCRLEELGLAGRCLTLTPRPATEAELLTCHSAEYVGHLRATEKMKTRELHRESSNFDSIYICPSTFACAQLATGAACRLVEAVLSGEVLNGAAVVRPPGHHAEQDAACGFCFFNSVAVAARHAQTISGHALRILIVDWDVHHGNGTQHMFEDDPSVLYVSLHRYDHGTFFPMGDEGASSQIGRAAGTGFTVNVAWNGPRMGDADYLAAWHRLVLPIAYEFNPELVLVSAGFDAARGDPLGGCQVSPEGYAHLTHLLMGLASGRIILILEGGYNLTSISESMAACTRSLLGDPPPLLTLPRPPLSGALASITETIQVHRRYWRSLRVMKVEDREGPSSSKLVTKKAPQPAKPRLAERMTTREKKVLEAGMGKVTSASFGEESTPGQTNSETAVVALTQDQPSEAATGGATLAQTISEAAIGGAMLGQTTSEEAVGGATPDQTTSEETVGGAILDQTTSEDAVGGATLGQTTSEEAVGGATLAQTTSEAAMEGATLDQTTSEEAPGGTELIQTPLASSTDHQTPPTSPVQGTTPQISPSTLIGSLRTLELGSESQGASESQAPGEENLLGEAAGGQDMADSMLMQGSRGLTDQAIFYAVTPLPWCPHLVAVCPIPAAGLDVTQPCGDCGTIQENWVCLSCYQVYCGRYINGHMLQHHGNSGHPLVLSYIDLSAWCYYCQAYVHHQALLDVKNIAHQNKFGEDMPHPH
Method: (§3) Fluorogenic HDAC inhibition assay. Boc-Lys(Ac)-7-amino-4-methylcoumarin (Boc-Lys(Ac)-AMC) was used as substrate for the HDAC assays. […] Trypsin was used to stop the reaction, releasing free AMC. The trypsin solution was prepared as follow: trypsin was dissolved in HDAC buffer to give a concentration of 10 mg/mL. Release of AMC was monitored by measuring the fluorescence at 460 nm (lex = 390 nm) with a microplate reader (SpectraMax Gemini) at 37 °C. The AMC signals were recorded against a blank with buffer, substrate and trypsin but without the enzyme. All experiments were carried out at least in triplicate.
(§4) For standard HDAC assays, 50 µL of HDAC buffer was mixed with 10 µL of diluted enzyme solution in HDAC buffer at room temperature. The HDAC reaction was started by adding 40 µL of substrate solution in HDAC buffer followed by 30 min of incubation with stirring at 37 °C. The reaction was stopped by adding 100 µL of trypsin solution. After a 10 min incubation with stirring at 37 °C, the release of AMC was monitored by measuring the fluorescence. For HDAC inhibition assays, inhibitor diluted in 50 µL of HDAC buffer was mixed with 10 µL of diluted enzyme solution in HDAC buffer at room temperature. The HDAC reaction was started by adding 40 µL of substrate solution in HDAC buffer followed by 30 min of incubation with stirring at 37 °C. The reaction was stopped by adding 100 µL of trypsin solution. After a 10 min incubation with stirring at 37 °C, the release of AMC was monitored by measuring the fluorescence.

[4] = tested on: AT84 cells; test: EdU cell growth assay; details: 1,25D-sensitive AT84 cells, Fig. 2d
Method: (§5) EdU cell growth assay. Click-iT EdU Alexa Fluor high-throughput imaging (HCS) assay for cell proliferation. HCS assays were performed on AT84 mouse squamous carcinoma cell line (ATCC) following the manufacturer's instruction (Molecular Probes, Invitrogen). […] All samples were in triplicate.

[5] = biological target: T2, VDR (Homo sapiens, UniProt P11473); test: VDR agonism by induction of CYP24 gene expression (RT/PCR); type: cell-based; details: for VDR agonism by induction of CYP24 gene expression: screen at 10 µM, Fig. 1a; for VDR agonism by induction of CYP24 gene expression / VDR agonist activity and potency, induction of CYP24 gene expression: SCC25 cells; for induction of CYP24 by the compound was blocked: Fig. 1c, blocking agent not given; for VDR agonist activity and potency, induction of CYP24 gene expression: Fig. 1b, 1d
T2 construct: endogenous in cells; host or cells: SCC25 human head and neck squamous carcinoma cells
T2 sequence (P11473 1-427): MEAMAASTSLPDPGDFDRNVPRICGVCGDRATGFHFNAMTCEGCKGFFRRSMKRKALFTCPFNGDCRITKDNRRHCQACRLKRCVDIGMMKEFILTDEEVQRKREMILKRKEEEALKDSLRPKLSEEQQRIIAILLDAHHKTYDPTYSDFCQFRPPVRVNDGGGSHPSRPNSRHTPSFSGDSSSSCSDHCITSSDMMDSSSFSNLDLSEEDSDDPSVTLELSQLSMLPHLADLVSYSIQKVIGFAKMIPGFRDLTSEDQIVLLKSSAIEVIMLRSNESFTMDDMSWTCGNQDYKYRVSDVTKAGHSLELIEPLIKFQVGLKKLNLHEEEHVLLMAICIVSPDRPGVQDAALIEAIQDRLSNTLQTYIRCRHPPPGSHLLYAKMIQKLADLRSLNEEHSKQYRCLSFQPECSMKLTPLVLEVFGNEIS
Method: Cell culture. Human head and neck squamous carcinoma cell lines SCC4 and SCC45 and mouse HNSCC line AT84 were purchased from American Type Culture Collection (Manassas, VA) and cultured under recommended conditions. Cells were split at 60-70% confluence, as follows: cells were washed with filtered PBS, split with a 5-10 min incubation with 1 ml Trypsin-EDTA (Invitrogen, Carlsbad, CA) in PBS, collected with medium. Following centrifugation, the supernatant was removed. Cell pellets were resuspended with DMEM-F12, and distributed on fresh media-containing dishes. For treatments, AT84 cells were split and 24h later medium was changed to DMEM + 10% charcoal-stripped FBS.
RNA isolation and RT/PCR analysis. […]. Proc. Nat. Acad. Sci. U.S.A. 105, 8250-55. and Lamblin, M.et al Bioorganic & Medicinal Chemistry (2010) 18:4119-4137. After treatment, cells were washed with PBS, homogenized with 1ml TRIzol Reagent (Invitrogen, Carlsbad, CA), kept at room temperature for 2-5 min, collected and kept at -80 °C for at least 1h. After, thawing 0.2 ml chloroform was added. After vigorous mixing and storing for 10min, mixtures were centrifuged (10,000rpm, 15 min, 4 °C) and the upper transparent layer was transferred to a new tube. 0.5 ml isopropanol was added and the new solution was mixed. After centrifuging at 4 °C, the supernatant was discarded and 1ml of 75% ethanol was added. After centrifuging and discarding the supernatant, the pellet was air-dried for 5-10 min, and then dissolved in ddH2O. RNA concentrations were measured using a spectrophotometer, and 1-3µg of RNA were loaded for reverse transcriptase reactions (total volume: 20 µl). 80µl of ddH2O was added to the RT-product, and 1.5µl of that was used as template for the PCR reaction. Reverse transcriptase (Super Script II) was purchased from Invitrogen (Carlsbad, CA). DNA polymerase and dNTP's were ordered from Fermentas (Glen Burnie, MD).
(§1) Test compounds (10 µM) were first screened for VDR agonism by analysis of induction of CYP24 gene expression in 1,25D-sensitive human SCC25 cells. […]. Consistent with binding to the VDR, induction of CYP24 by compound JF-B01, compound JF-B53 or compound 16 (JF-B54) was blocked (Fig. 1c). […]

[6] = biological target: HDAC3 (Homo sapiens, UniProt O15379); test: Fluorogenic HDAC inhibition assay, purified enzyme
Method: as §3, §4

[7] = tested on: SCC4 cells; test: EdU cell growth assay; details: for inhibition of proliferation, EdU incorporation: 1,25D-resistant SCC4 cells, Fig. 2e, f
Method: as §5

[8] = tested on: SCC25 cells; test: EdU cell growth assay; details: higher concentrations
Method: as §5

[9] = tested on: total intracellular HDAC activity in SCC25 cells; test: HDACi activity with fluorogenic substrate in live cells; type: cell-based, human; details: increasing concentration, Fig. 2a, b
Description: (§2) This assay measures the inhibition of total intracellular HDAC activity and determines the capacity of compounds to inhibit HDACs in the form of their naturally occurring complexes.

[10] = tested on: total intracellular HDAC activity in SCC4 cells; test: as above; type: cell-based, human; details: increasing concentration, Fig. 2a, b
Description: as §2

[11] = biological target: T2, VDR; test: Chromatin immunoprecipitation (ChIP) assay, CYP24 promoter, SCC25 cells; type: cell-based; details: Fig. 1e
Method: Chromatin immunoprecipitation assays. ChIP assays were performed with sonicated extracts of SCC25 cells as described (see Wang, T.-T. et al. J Immunol (2004) 173:2909-2912). […] Immunoprecipitations were performed using normal rabbit IgG, anti-VDR antibody (c-20) (Santa Cruz Biotechnology, Santa Cruz, CA). […].
as §1

Chain of HDAC3 (O15379 whole entry, species assumed): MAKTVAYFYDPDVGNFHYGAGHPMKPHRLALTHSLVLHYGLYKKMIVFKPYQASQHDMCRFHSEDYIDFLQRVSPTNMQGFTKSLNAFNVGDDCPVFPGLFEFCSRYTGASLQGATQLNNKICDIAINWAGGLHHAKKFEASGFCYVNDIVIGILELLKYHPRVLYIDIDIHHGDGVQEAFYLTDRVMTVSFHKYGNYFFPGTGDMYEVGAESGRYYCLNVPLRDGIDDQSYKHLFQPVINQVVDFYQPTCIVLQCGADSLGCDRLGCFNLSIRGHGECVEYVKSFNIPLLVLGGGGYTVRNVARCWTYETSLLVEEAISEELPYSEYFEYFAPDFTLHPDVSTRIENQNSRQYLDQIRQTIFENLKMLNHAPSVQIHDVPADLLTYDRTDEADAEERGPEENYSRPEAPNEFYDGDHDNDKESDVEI
Chain of HDAC3 (Q9Y618 395-489 partner limits assumed, species assumed): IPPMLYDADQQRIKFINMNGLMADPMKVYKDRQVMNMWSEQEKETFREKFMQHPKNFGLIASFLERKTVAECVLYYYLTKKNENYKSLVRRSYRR

| Compound | antiproliferative potency [1] | cytotoxicity, LDH release [2] | IC50 [3] [µM] | IC50 [6] [µM] | inhibition of proliferation, EdU incorporation [7] | VDR agonist activity and potency, induction of CYP24 gene expression [5] | other results |
| --- | --- | --- | --- | --- | --- | --- | --- |
| CCC(CC)(c1ccc(OCC(O)C(C)(C)C)c(C)c1)c1c[nH]c2cc(CCC(=O)NO)ccc12 (stereo not shown) [DK-222, N-hydroxy-3-(3-(3-(4-(2-hydroxy-3,3-dimethylbutoxy)-3-methylphenyl)pentan-3-yl)-1H-indol-6-yl)propanamide] | low micromolar potency | good cytotoxicity |  |  |  |  |  |
| CCC(CC)(c1ccc(OCC(O)C(C)(C)C)c(C)c1)c1ccc(OCC(=O)NO)c(Br)c1 (stereo not shown) [DK-309, 2-(2-bromo-4-(3-(4-(2-hydroxy-3,3-dimethylbutoxy)-3-methylphenyl)pentan-3-yl)phenoxy)-N-hydroxyacetamide] |  | good cytotoxicity |  |  |  |  |  |
| CCC(CC)(c1ccc(OCC(=O)NO)cc1)c1ccc(OCC(O)C(C)(C)C)c(C)c1 (stereo not shown) [DK-366, N-hydroxy-2-(4-(3-(4-(2-hydroxy-3,3-dimethylbutoxy)-3-methylphenyl)pentan-3-yl)phenoxy)acetamide] | low micromolar potency | good cytotoxicity | 6.6 to 8.2 |  |  |  |  |
| CCC(CC)(c1ccc(OCC(=O)NO)c(C)c1)c1ccc(OCC(=O)NO)c(C)c1 [JF-B06] |  |  | 4.7 |  |  |  | inhibition of proliferation, EdU incorporation [4]: failed to block AT84 proliferation; VDR agonism by induction of CYP24 gene expression [5]: completely inactive; IC50 ([3]; read-out: HDAC6 IC50, purified enzyme in vitro): 4.7 µM |
| CCC(CC)(c1ccc(OCC(=O)NO)c(C)c1)c1ccc(OCC(CO)CO)c(C)c1 [JF-B21] |  |  | 37.9 | 36.1 | failed to block SCC4 proliferation |  | inhibition of proliferation, EdU incorporation [4]: failed to block AT84 proliferation; VDR agonism by induction of CYP24 gene expression [5]: completely inactive |
| CCC(CC)(c1ccc(OCC(=O)NO)c(C)c1)c1ccc(OCC(C)(C)O)c(C)c1 [JF-B53, N-Hydroxy-2-(4-(3-(4-(2-hydroxy-2-methylpropoxy)-3-methylphenyl)pentan-3-yl)-2-methylphenoxy)acetamide] |  |  | 33.3 | 17 | partially blocked EdU incorporation | VDR agonist activity, but with reduced potency | induction of CYP24 by the compound was blocked [5]: blocked |
| CCC(O)(CC)COc1ccc(C(CC)(CC)c2ccc(OCC(=O)NO)c(C)c2)cc1C [JF-B54, 2-(4-(3-(4-(2-Ethyl-2-hydroxybutoxy)-3-methylphenyl)pentan-3-yl)-2-methylphenoxy)-N-hydroxyacetamide] |  |  | 31.5 | 29.9 | completely | VDR agonist activity, but with reduced potency | EdU incorporation at higher concentrations ([7]; SCC4 cells, higher concentrations): completely abolished EdU incorporation; EdU incorporation at higher concentrations [8]: completely abolished EdU incorporation; HDACi activity, substrate deacetylation [9]: most potent; HDACi activity, substrate deacetylation [10]: most potent; induction of CYP24 by the compound was blocked [5]: blocked |
| CCC(CC)(c1ccc(OCC(=O)NO)c(C)c1)c1ccc(OC[C@H](O)C(C)(C)C)c(C)c1 [JF-C71, N-Hydroxy-2-(4-(3-(4-((2R)-hydroxy-3,3-dimethylbutoxy)-3-methylphenyl)pentan-3-yl)-2-methylphenoxy)acetamide] | low micromolar potency |  | 26.1 | 22 |  | VDR agonists with similar potencies | binding of the VDR to the vitamin D response element in the proximal promoter of the CYP24 gene [11]: induced binding of the VDR |
| CCC(CC)(c1ccc(OCC(=O)NO)c(C)c1)c1ccc(OC[C@@H](O)C(C)(C)C)c(C)c1 [JF-C72, N-Hydroxy-2-(4-(3-(4-((2S)-hydroxy-3,3-dimethylbutoxy)-3-methylphenyl)pentan-3-yl)-2-methylphenoxy)acetamide] | low micromolar potency |  |  |  |  | VDR agonists with similar potencies | binding of the VDR to the vitamin D response element in the proximal promoter of the CYP24 gene [11]: induced binding of the VDR |
